Reference: US20240409534A1, “CRYSTAL FORM OF METHYLPYRAZOLE-SUBSTITUTED PYRIDOIMIDAZOLE COMPOUND AND PREPARATION METHOD THEREFOR” (priority 2021, published 2024)

How the values were obtained:
[1] = tested on: bladder cancer cells RT112/84 with high expression of FGFR3; assay: Cell proliferation inhibition, CellTiter-Glo, RT-112/84; assay type: cell-based; settings: Homo sapiens, RT112/84, 72 h, RT-112/84, cultured for 3 days
Excerpt: The compounds of the present disclosure can target and inhibit FGFR and VEGFR pathways, and inhibit tumor cell growth by inhibiting VEGF/VEGFR and FGF/FGFR signaling pathways. In this experiment, human non-small cell lung cancer cells NCI-H1581 with high expression of FGFR1, gastric cancer cells SNU-16 with high expression of FGFR2, and human bladder cancer cells RT112/84 with high expression of FGFR3 were selected. In this experiment, the inhibitory effect of compounds on cell proliferation was investigated by detecting the effect of the compounds of the present disclosure on the cell viability in vitro in the tumor cell lines NCI-H1581, SNU-16 and RT-112/84.
Regular passage, and cells in logarithmic growth phase were taken for plating.
• (1) Cells were stained with trypan blue and viable cells were counted. • (2) The cell concentration was adjusted to an appropriate concentration.
• (3) 90 μL of cell suspension per well was added to a culture plate, and cell-free culture solution was added to the blank control well. • (4) The plate was cultured overnight in a 37° C., 5% CO2 incubator with 100% relative humidity.
• (1) Preparation of 10× compound working solution: 78 μL of cell culture medium was added to a V-bottom 96-well plate, and 2 μL of compound was pipetted from a 400× compound storage plate and added to the cell culture medium of the 96-well plate. […]

Ba/F3-TEL-FLT4 (VEGFR3) = assay: In vitro proliferation of BaF3 cell line, Ba/F3-TEL-FLT4; assay type: cell-based
Description: The mother solution was prepared into a total of 9 concentration gradients (10.0000 mM, 2.5000 mM, 0.6250 mM, 0.1563 mM, 0.0391 mM, 0.0098 mM, 0.0024 mM, 0.0006 mM and 0.0002 mM) in a 4-fold dilution and stored in a 96-well plate (Beaver, Suzhou), while the same volume of DMSO solvent was used as a negative control. • 1. Cell suspension in logarithmic growth phase was taken and inoculated in a white 96-well cell culture plate (Corning 3917, NY, USA) with a volume of 95 μL per well (2000 cells/well). • 2. Diluted medium-compound mixture was added in a volume of 5 μL per well, respectively, and the final concentration of DMSO in Ba/F3-TEL-FLT1 (VEGFR1), Ba/F3-TEL-FLT4 (VEGFR3) and Ba/F3-TEL-VEGFR2 cells was 0.1%.
• 3. The plate was incubated in a 37° C., 5% CO2 incubator for 72 h. • 4. The proliferation inhibitory activity and data analysis of the compound by CellTiter-Glo method were the same as in Experimental embodiment 1.

[2] = tested on: Renca subcutaneous xenograft tumor; assay: In vivo antitumor activity, Renca subcutaneous xenograft tumor model; parameters: species or system Balb/c mice
Description: Female Balb/c mice (6 to 8 weeks old)
Mouse renal carcinoma Renca cells (ATCC-CRL-2947) were adherent cultured in vitro under the conditions of RPMI 1640 Medium with 10% fetal bovine serum, 0.1 mM non-essential amino acids, 1 mM sodium pyruvate, 2 mM glutamine, 100 U/mL penicillin and 100 µg/mL streptomycin, and cultured in a 37° C., 5% CO2 incubator. Routine passage was performed twice a week. When the cell saturation density was 80% to 90% and the number of cells reached the required level, the cells were collected, counted, and inoculated.
0.1 mL (1×10^5) Renca cells were subcutaneously inoculated on the dorsal side of the right upper limb of each mouse, and grouping and administration were initiated when the average tumor volume reached approximately 50 to 80 mm^3.
Tumor diameters were measured twice a week with vernier calipers. […]
The antitumor efficacy of compounds was evaluated by TGI (%) or relative tumor proliferation rate T/C (%). […] Relative tumor volume (RTV) was calculated according to the results of tumor measurement, and the formula was RTV=Vt/V0, where V0 was the tumor volume measured at the time of grouping and administration (i.e. D0), Vt was the tumor volume of the corresponding mouse in one measurement, and the TRTV and CRTV data were collected on the same day. […]

**Q.** For `CS(=O)(=O)O.Cn1cc(-c2ccn3c(-c4cc(NS(C)(=O)=O)nc(-c5ccc(F)cc5F)c4)cnc3c2)cn1`, which IC50 [1] is on record?
**A.** 167 nM

**Q.** And the Maximum inhibition (Ba/F3-TEL-FLT4 (VEGFR3); 72 h)?
**A.** 100%

**Q.** And the Minimum inhibition (Ba/F3-TEL-FLT4 (VEGFR3); 72 h)?
**A.** −2.54%

**Q.** What about the IC50 (Ba/F3-TEL-FLT4 (VEGFR3); Mus musculus, BaF3, 72 h, read-out: Relative IC50) of the same molecule?
**A.** 395 nM

**Q.** What about the “effect on tumor growth versus solvent control group” value ([2]; Renca model, 100 mg/kg, p=0.031) of the same molecule?
**A.** significant inhibitory effect on tumor growth

**Q.** What about the “TGI % (last administration on day 19)” value ([2]; Renca xenograft tumor model, 100 mg/kg QD, female Balb/c mice) of the same molecule?
**A.** 72%
